Assay results: US6881824B1, “Peptides suitable for use in antigen specific immunosuppressive therapy” (Akzo Nobel N.V., priority 1996, dated 2005)
Ends that are not written are not given here.

Columns and labels:
[1] = tested on: PBMC from healthy donors carrying the DR4 (DRB1*0401) specificity; test: Peptide-induced proliferative responses of PBMC from healthy donors; assay type: cell-based, human; details: for Peptide-induced proliferative response of PBMC, HD 230: healthy donor 230, 0401, R
Experimental: Peripheral blood samples from 5 healthy donors carrying the DR4(DRB1*0401) specificity were obtained with informed consent and included in this study as a control.
(§1) In order to identify T-cell epitopes within HC gp-39, 59 peptides of 16 AA in length, overlapping by 10 AA were tested for their capacity to induce a proliferative response in PBMC from RA patients and healthy controls carrying the DR4 (DRB1*0401) specificity (Table 1).
(§2) PBMC obtained from heparinized venous peripheral blood were isolated by standard centrifugation on a Ficoll-Paque gradient. Cells were cultured in four-fold at a concentration of 1,5×10^5 cells/well in medium supplemented with 10% heat-inactivated, autologous plasma, L-glutamine, 2-ME and antibiotics in flatbottomed microtiter plates. Cells were incubated in medium alone or in the presence of phytohaemagglutinin (PHA) (2:5 μg/ml) to assert cell viability, or in the presence of 10 or 100 μg/ml of the HC gp-39-derived peptides. In several cases, sets of 2 or 3 sequential peptides were tested due to limited PBMC numbers of individual donors. Cultures were incubated in a total volume of 210 μl for 7 days at […] in a humidified atmosphere of 5% CO2. Cultures were pulsed during the last 18 hours with 0.25 μCi ^3H-thymidine ([^3H]TdR). Cells were harvested on glassfiber filters and [^3H] TdR incorporation was measured by gas scintillation (Packard Matrix 96 βcounter). Only peptides inducing a proliferative response at both 10 and 100 μg/ml were considered to contain a T-cell epitope. Responses were defined positive if stimulation index values (SI, antigen-specific counts per 5 min (cp5 m)/background cp5 m) exceeded or equaled 2.
(§3) T-cell reactivity to HC gp-39-derived peptide as analyzed by measuring the PBMC proliferative response in DR4 (DRB1*0401)-positive RA patients and healthy donors. Proliferative responses were tested in autologous plasma. In Table IIIA and IIIB the results of 7 experiments are presented showing the responses of RA patients (Table IIIA) and the responses of healthy donors (Table IIIB) to 59 overlapping sequences derived from HC gp-39.

[2] = tested on: PBMC from RA patients carrying the DR4 (DRB1*0401) specificity; test: Peptide-induced proliferative responses of PBMC from RA patients; assay type: cell-based, human; details: for Peptide-induced proliferative response of PBMC, RA 272: RA patient 272, 0401, R; for Peptide-induced proliferative response of PBMC, RA 276: RA patient 276, 0401, R; for Peptide-induced proliferative response of PBMC, RA 286: RA patient 286, 0401, R
Experimental: This study included 7 DR4(DRB1*0401)-positive patients diagnosed as suffering from RA according to the ARA criteria (Arnett et al., (1988), Arthritis Rheum. 31, 315). Peripheral blood samples were obtained with informed consent. There were five women and two men aged 46-79 years. Their duration of disease ranged from over 10 to over 30 years. Three out of 7 patients had at least 3 swollen joints. […] All patients were on medication: Four patients were treated with prednisone, three patients received anti-rheumatic agents and 4 patients were treated with NSAID's as well.
as §1, §2, §3

[3] = tested on: PBMC from RA patients and healthy controls carrying the DR4 (DRB1*0401) specificity; test: Proliferative responses of blood mononuclear cells, RA patients and healthy donors taken together; assay type: cell-based, human; details: for Responses to the individual peptides (PBMC proliferation), identifying T-cell epitopes: any donor
Experimental: as §1, §2, §3

[4] = target: T1, DR4 (DRB1*0401) molecules (Homo sapiens, UniProt P01903+P01911, A100K/A169T/F76Y/I96L/K127E/L162R/M171V/N62H/P40V/Q125Y/R42H/S133A/S149N/S66Y/V115G/V209L/W38E); test: Peptide HLA-DR binding assay (semi-quantitative competition binding); details: for IC50: competition with biotinylated marker peptide HA 309 Y→F, pH5.0, 44 hr RT
T1 construct: molecules were purified from the homozygous EBV-transformed human B lymphoblastoid cell lines Huly138IC2 and BM92 using the mAb; endogenous in cells
Experimental: DR4 (DRB1*0401) and DR4 (DRB1*0404) molecules were purified from the homozygous EBV-transformed human B lymphoblastoid cell lines Huly138IC2 and BM92 using the mAb t243, directed against a monomorphic determinant on the DR-complex (Lampson, L. A and R. Levy (1980), J. Immunol. 125:293 299).
The peptide binding studies were performed using a semi-quantitative competition binding assay (Joosten et al 1994, Int. Immunol. 6, 751). Briefly, purified HLA-DR molecules (30 nM DR4(DRB1*0401) or 15 nM DR4 (DRB1*0404) were incubated at pH5.0 with 50 nM biotinylated marker peptide (HA 309y→F) and a concentration range of competitor peptide in a final volume of 25 μl binding buffer (PBS containing 0.01% […], 0.05% NP-40, 5% DMSO, 1 mM AEBSF, 1 mM N-ethyl maleimide, 8 mM EDTA and 10 μm pepstatin A). After 44 hr of incubation at RT, HLA DR bound marker peptide was separated from free marker peptide using a 96 well vacuum dotblot apparatus (Hybri. dot, BRL) and a nitrocellulose membrane (Hybond ECL, Amersham, UK). The nitrocellulose filters were blocked with 0.5% DNA blocking reagent (Boehringer) in 0.1 M maleic acid, 150 mM NaCl, pH7.5.
After 0.5-1 hr, the filters were washed in PBS, 0.05% Tween 20 (Sigma) and incubated with Strepcavidin-HRPO (Southern Biotechnology) in a 1:10.000 dilution. Biotinylated peptides were detected by enhanced chemiluminescence using a Western Blot ECL kit (Amersham). Exposure of the preflashed films (Hyperfilm-ECL, Amersham) was for 10 min. The spots were analysed by scanning the films and using Image Quant/Excel software for analysis.
The affinity of a given peptide for binding DRB1*0401-encoded molecules was related to competition with the marker peptide. This relative binding affinity was defined as the peptide concentration at which the signal was reduced to 50% (IC50).

[5] = target: T2, DR4 (DRB1*0401) molecules purified from the homozygous EBV-transformed human B lymphoblastoid cell line … (human, UniProt P01903 26-254); test: competition binding assay on purified DR4(DRB1*0401)
T2 construct: mature; That form is inferred from purification of the native complex

[6] = target: T2, DR4 (DRB1*0401) molecules purified from …
[7] = 100 and 10 microgram/ml, 7 days, 3H-thymidine incorporation

Molecule | Presence of T-cell epitopes confirmed by PBMC of healthy donor 230 [1] | Peptide-induced proliferative response of PBMC, HD 230 [1, 7] | Peptide-induced proliferative response of PBMC, RA 272 [2, 7] | Response of PBMC from RA patient 272 to individual peptides, in words [2] | Responses to the individual peptides (PBMC proliferation), identifying T-cell epitopes [3] | Relative affinity of binding to DR4 (DRB1*0401), in words [4] | IC50 ([4]; Table IIIA) [µM] | IC50 ([4]; Table IIIB) [µM] | binding result [5] | IC50 [6] [µM] | further results
DYAVGYMLRLGAPASK [compound 37, DYAVGYMLRLGAPASK] | confirmed the presence of T-cell epitopes | pos (positive responses to both 100 and 10 microgram/ml of peptide or sets of peptides (SI>2 were regarded positive)) | pos (positive responses to both 100 and 10 microgram/ml of peptide or sets of peptides (SI≧2 were regarded positive)) | appeared to respond | observed in one or more donors | relatively high affinity | < 1 | < 1 | – | – | Peptide-induced proliferative response of PBMC, HD 155 ([1]; healthy donor 155, 0401, R, 100 and 10 microgram/ml, 7 days, 3H-thymidine incorporation): pos (positive responses to both 100 and 10 microgram/ml of peptide or sets of peptides (SI>2 were regarded positive)); Peptide-induced proliferative response of PBMC, HD 235 ([1]; healthy donor 235, 0401, R, 100 and 10 microgram/ml, 7 days, 3H-thymidine incorporation): pos (positive responses to both 100 and 10 microgram/ml of peptide or sets of peptides (SI>2 were regarded positive))
LDRFLCTHIIYSFANI [compound 5, LDRFLCTHIIYSFANI] | confirmed the presence of T-cell epitopes | pos (positive responses to both 100 and 10 microgram/ml of peptide or sets of peptides (SI>2 were regarded positive)) | pos (positive responses to both 100 and 10 microgram/ml of peptide or sets of peptides (SI≧2 were regarded positive)) | appeared to respond | observed in one or more donors | relatively high affinity | < 1 | < 1 | – | – | Peptide-induced proliferative response of PBMC, RA 259 ([2]; RA patient 259, 0401, R, 100 and 10 microgram/ml, 7 days, 3H-thymidine incorporation): pos (positive responses to both 100 and 10 microgram/ml of peptide or sets of peptides (SI≧2 were regarded positive))
QHLDFISIMTYDFHGA [peptide 30, QHLDFISIMTYDFHGA] | confirmed the presence of T-cell epitopes | pos (positive responses to both 100 and 10 microgram/ml of peptide or sets of peptides (SI>2 were regarded positive)) | pos (positive responses to both 100 and 10 microgram/ml of peptide or sets of peptides (SI≧2 were regarded positive)) | appeared to respond | observed in one or more donors | relatively high affinity | < 1 | < 1 | – | – | Peptide-induced proliferative response of PBMC, RA 262 ([2]; RA patient 262, 0401, R, 100 and 10 microgram/ml, 7 days, 3H-thymidine incorporation): pos (positive responses to both 100 and 10 microgram/ml of peptide or sets of peptides (SI≧2 were regarded positive)); Peptide-induced proliferative response of PBMC, RA 276 [2, 7]: pos (positive responses to both 100 and 10 microgram/ml of peptide or sets of peptides (SI≧2 were regarded positive)); Peptide-induced proliferative response of PBMC, RA 286 [2, 7]: pos (positive responses to both 100 and 10 microgram/ml of peptide or sets of peptides (SI≧2 were regarded positive)); Peptides or sets of peptides most frequently recognized ([3]; overall, all donors): most frequently recognized
THIIYSFANISNDHID [compound 6, THIIYSFANISNDHID] | confirmed the presence of T-cell epitopes | pos (positive responses to both 100 and 10 microgram/ml of peptide or sets of peptides (SI>2 were regarded positive)) | pos (positive responses to both 100 and 10 microgram/ml of peptide or sets of peptides (SI≧2 were regarded positive)) | appeared to respond | observed in one or more donors | relatively high affinity | < 1 | < 1 | – | – | Peptide-induced proliferative response of PBMC, RA 276 [2, 7]: pos (positive responses to both 100 and 10 microgram/ml of peptide or sets of peptides (SI≧2 were regarded positive)); Peptide-induced proliferative response of PBMC, RA 286 [2, 7]: pos (positive responses to both 100 and 10 microgram/ml of peptide or sets of peptides (SI≧2 were regarded positive))
YKLVCYYTSWSQYREG [peptide 1, YKLVCYYTSWSQYREG] | confirmed the presence of T-cell epitopes | pos (positive responses to both 100 and 10 microgram/ml of peptide or sets of peptides (SI>2 were regarded positive)) | pos (positive responses to both 100 and 10 microgram/ml of peptide or sets of peptides (SI≧2 were regarded positive)) | appeared to respond | observed in one or more donors | relatively high affinity | < 1 | < 1 | – | – | –
TFIKSVPPFLRTHGFD [HC gp-39 peptide 17 (residues 118-133)] | – | – | – | – | – | – | – | – | binds | 1 to 10 | –
DYAVGYMLRLGAPASK [HC gp-39 peptide 37 (residues 238-253)] | – | – | – | – | – | – | – | – | binds | < 1 | –
YKLVCYYTSWSQYREG [HC gp-39 peptide 1 (residues 22-37)] | – | – | – | – | – | – | – | – | binds | < 1 | –
YLKDRQLAGAMVWALD [HC gp-39 peptide 54 (residues 340-355)] | – | – | – | – | – | – | – | – | binds | < 1 | –
QHLDFISIMTYDFHGA [HC gp-39 peptide 30 (residues 196-211)] | – | – | – | – | – | – | – | – | binds | < 1 | –
